Data: patent US20230086702A1, “SUBSTITUTED 2-AMINO-PYRAZOLYL-[1,2,4]TRIAZOLO[1,5A]PYRIDINE DERIVATIVES AND USE THEREOF” (The Johns Hopkins University, priority 2019, published 2023)

Assays:
DLK = target: T1, DLK (Homo sapiens, UniProt Q12852); test: DLK biochemical assay (TR-FRET, MKK7 phosphorylation)
T1 construct: 10 nM DLK, catalytic domain, Carna Biosiences; purchased Carna Biosciences ('Carna Biosiences' [sic])
T1 sequence (Q12852 125-366 limits assumed): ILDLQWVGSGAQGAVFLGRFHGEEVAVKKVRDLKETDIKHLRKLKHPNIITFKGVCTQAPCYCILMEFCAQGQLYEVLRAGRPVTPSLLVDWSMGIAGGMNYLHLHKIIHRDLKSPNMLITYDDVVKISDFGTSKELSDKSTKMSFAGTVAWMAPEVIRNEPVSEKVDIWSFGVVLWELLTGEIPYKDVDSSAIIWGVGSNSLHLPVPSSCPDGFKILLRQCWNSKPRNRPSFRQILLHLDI
In short: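 DLK catalytic domain (10 nM) phosphorylates His-MKK7 (15 nM) at 60 μM ATP for 90 min at RT in pH 7.5 Hepes buffer (final concentrations). Phospho-T275/S277 is detected by TR-FRET (Eu anti-phospho donor, XL665 anti-His acceptor) after 16 h at 37° C (1536 format) or 4° C (384 format).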

LZK = target: T2, LZK (Homo sapiens, UniProt O43283); test: LZK biochemical assay (TR-FRET, MKK7 phosphorylation)
T2 construct: 10 nM LZK, catalytic domain, Carna Biosiences in assay buffer; purchased Carna Biosciences ('Carna Biosiences' [sic])
T2 sequence (O43283 168-409 limits assumed): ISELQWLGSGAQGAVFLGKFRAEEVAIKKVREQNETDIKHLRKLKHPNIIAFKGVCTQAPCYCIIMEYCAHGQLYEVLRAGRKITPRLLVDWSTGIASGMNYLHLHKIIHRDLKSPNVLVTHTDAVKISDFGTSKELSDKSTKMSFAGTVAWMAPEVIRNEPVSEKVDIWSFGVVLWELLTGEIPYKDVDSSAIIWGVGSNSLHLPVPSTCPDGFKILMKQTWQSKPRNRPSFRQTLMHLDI
In short: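 LZK catalytic domain (10 nM) phosphorylates His-MKK7 (15 nM) with 15 µM ATP, all final, for 90 min at RT in HEPES buffer pH 7.5 with MgCl2. Phospho-T275/S277 detected by TR-FRET (Eu anti-phospho donor, XL665 anti-His acceptor) after 16 h at 32 °C in EDTA stop buffer. Inhibition lowers the 665/Eu ratio.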

Structure (SMILES) | IC50 (DLK) | IC50 (LZK)
CCC(c1ccc(C(F)(F)F)nc1)n1cc(-c2cc(-c3cnn(CC(F)F)c3)c3nc(N)nn3c2)cn1 (single isomer, unassigned) [II-109, 8-[1-(2,2-Difluoroethyl)-1H-pyrazol-4-yl]-6-(1-{1-[6-(trifluoromethyl)pyridin-3-yl]propyl}-1H-pyrazol-4-yl)[1,2,4]triazolo[1,5-a]pyridin-2-amine] | 16 nM | 57 nM
CCC(c1ccc(C(F)(F)F)nc1)n1cc(-c2cc(-c3cnn(CC(F)F)c3)c3nc(N)nn3c2)cn1 (single isomer, unassigned) [II-110, 8-[1-(2,2-Difluoroethyl)-1H-pyrazol-4-yl]-6-(1-{1-[6-(trifluoromethyl)pyridin-3-yl]propyl}-1H-pyrazol-4-yl)[1,2,4]triazolo[1,5-a]pyridin-2-amine] | 2.2 nM | 9.7 nM
Nc1nc2c(-c3cnn(CC(F)(F)F)c3)cc(-c3cnn(C(c4ccc(C(F)(F)F)nc4)C4CCOCC4)c3)cn2n1 (single isomer, unassigned) [II-118, 6-(1-{Tetrahydro-2H-pyran-4-yl[6-(trifluoromethyl)pyridin-3-yl]methyl}-1H-pyrazol-4-yl)-8-[1-(2,2,2-trifluoroethyl)-1H-pyrazol-4-yl][1,2,4]triazolo[1,5-a]pyridin-2-amine] | 0.6 nM | 2.6 nM
Nc1nc2c(-c3cnn(CC(F)(F)F)c3)cc(-c3cnn(C(c4ccc(C(F)(F)F)nc4)C4CCOCC4)c3)cn2n1 (single isomer, unassigned) [II-119, 6-(1-{Tetrahydro-2H-pyran-4-yl[6-(trifluoromethyl)pyridin-3-yl]methyl}-1H-pyrazol-4-yl)-8-[1-(2,2,2-trifluoroethyl)-1H-pyrazol-4-yl][1,2,4]triazolo[1,5-a]pyridin-2-amine] | 4.7 nM | 16 nM
CCC(c1ccc(C(F)(F)F)cc1)n1cc(-c2cc(-c3cnn(C4CCCC4)c3)n3nc(N)nc3c2)cn1 (single isomer, unassigned) [II-133, 5-(1-Cyclopentyl-1H-pyrazol-4-yl)-7-(1-{1-[4-(trifluoromethyl)phenyl]propyl}-1H-pyrazol-4-yl)[1,2,4]triazolo[1,5-a]pyridin-2-amine] | 45 nM | 130 nM
CCC(c1ccc(C(F)(F)F)cc1)n1cc(-c2cc(-c3cnn(C4CCCC4)c3)n3nc(N)nc3c2)cn1 (single isomer, unassigned) [II-134, 5-(1-Cyclopentyl-1H-pyrazol-4-yl)-7-(1-{1-[4-(trifluoromethyl)phenyl]propyl}-1H-pyrazol-4-yl)[1,2,4]triazolo[1,5-a]pyridin-2-amine] | 32 nM | 44 nM
COc1cc(C(C(C)C)n2cc(-c3cc(-c4cnn(CC(F)(F)F)c4)n4nc(N)nc4c3)cn2)ccn1 (single isomer, unassigned) [II-137, 7-{1-[1-(2-Methoxypyridin-4-yl)-2-methylpropyl]-1H-pyrazol-4-yl}-5-[1-(2,2,2-trifluoroethyl)-1H-pyrazol-4-yl][1,2,4]triazolo[1,5-a]pyridin-2-amine] | 40 nM | 720 nM
CC(C)C(c1ccc(C(F)(F)F)nc1)n1cc(-c2cc(-c3cnn(C4CCCC4)c3)n3nc(N)nc3c2)cn1 (single isomer, unassigned) [II-144, 5-(1-Cyclopentyl-1H-pyrazol-4-yl)-7-(1-{2-methyl-1-[6-(trifluoromethyl)pyridin-3-yl]propyl}-1H-pyrazol-4-yl)[1,2,4]triazolo[1,5-a]pyridin-2-amine] | 27 nM | 57 nM
Nc1nc2cc(-c3cnn(C(c4ccccc4)C4CCOCC4)c3)cc(-c3cnn(CC(F)(F)F)c3)n2n1 (single isomer, unassigned) [II-147, 7-{1-[Phenyl(tetrahydro-2H-pyran-4-yl)methyl]-1H-pyrazol-4-yl}-5-[1-(2,2,2-trifluoroethyl)-1H-pyrazol-4-yl][1,2,4]triazolo[1,5-a]pyridin-2-amine] | 2.3 nM | 73 nM
Nc1nc2cc(-c3cnn(C(c4ccccc4)C4CCOCC4)c3)cc(-c3cnn(CC(F)(F)F)c3)n2n1 (single isomer, unassigned) [II-148, 7-{1-[Phenyl(tetrahydro-2H-pyran-4-yl)methyl]-1H-pyrazol-4-yl}-5-[1-(2,2,2-trifluoroethyl)-1H-pyrazol-4-yl][1,2,4]triazolo[1,5-a]pyridin-2-amine] | 22 nM | 170 nM
Nc1nc2cc(-c3cnn(C(c4ccc(C(F)(F)F)nc4)C4CCOCC4)c3)cc(-c3cnn(CC(F)(F)F)c3)n2n1 (single isomer, unassigned) [II-150, 7-(1-{Tetrahydro-2H-pyran-4-yl[6-(trifluoromethyl)pyridin-3-yl]methyl}-1H-pyrazol-4-yl)-5-[1-(2,2,2-trifluoroethyl)-1H-pyrazol-4-yl][1,2,4]triazolo[1,5-a]pyridin-2-amine] | 1.4 nM | 4.9 nM
Nc1nc2cc(-c3cnn(C(c4ccc(C(F)(F)F)nc4)C4CCOCC4)c3)cc(-c3cnn(CC(F)(F)F)c3)n2n1 (single isomer, unassigned) [II-151, 7-(1-{Tetrahydro-2H-pyran-4-yl[6-(trifluoromethyl)pyridin-3-yl]methyl}-1H-pyrazol-4-yl)-5-[1-(2,2,2-trifluoroethyl)-1H-pyrazol-4-yl][1,2,4]triazolo[1,5-a]pyridin-2-amine] | 11 nM | 11 nM

Continued, values first:

IC50 (DLK) | IC50 (LZK) | Structure (SMILES)
4.7 nM | 17 nM | CC[C@@H](c1ccc(C(F)(F)F)nc1)n1cc(-c2cc(-c3cnn(CC(F)(F)F)c3)c3nc(N)nn3c2)cn1 (single isomer, unassigned) [II-112, 8-[1-(2,2,2-trifluoroethyl)-1H-pyrazol-4-yl]-6-(1-{1-[6-(trifluoromethyl)pyridin-3-yl]propyl}-1H-pyrazol-4-yl)[1,2,4]triazolo[1,5-a]pyridin-2-amine]
23 nM | 59 nM | CCC(c1ccc(C(F)(F)F)nc1)n1cc(-c2cc(-c3cnn(CC(F)(F)F)c3)c3nc(N)nn3c2)cn1 (single isomer, unassigned) [II-113, 8-[1-(2,2,2-trifluoroethyl)-1H-pyrazol-4-yl]-6-(1-{1-[6-(trifluoromethyl)pyridin-3-yl]propyl}-1H-pyrazol-4-yl)[1,2,4]triazolo[1,5-a]pyridin-2-amine]
67 nM | 138 nM | CCC(c1ccc(OC(F)(F)F)nc1)n1cc(-c2cc(-c3cnn(CC(F)(F)F)c3)n3nc(N)nc3c2)cn1 (single isomer, unassigned) [II-115, 5-[1-(2,2,2-Trifluoroethyl)-1H-pyrazol-4-yl]-7-(1-{1-[6-(trifluoromethoxy)pyridin-3-yl]propyl}-1H-pyrazol-4-yl)[1,2,4]triazolo[1,5-a]pyridin-2-amine]
9.7 nM | 22 nM | CC[C@@H](c1ccc(OC(F)(F)F)nc1)n1cc(-c2cc(-c3cnn(CC(F)(F)F)c3)n3nc(N)nc3c2)cn1 (single isomer, unassigned) [II-116, 5-[1-(2,2,2-Trifluoroethyl)-1H-pyrazol-4-yl]-7-(1-{1-[6-(trifluoromethoxy)pyridin-3-yl]propyl}-1H-pyrazol-4-yl)[1,2,4]triazolo[1,5-a]pyridin-2-amine]
120 nM | 670 nM | CCC(c1ccc(C(F)(F)F)cc1)n1cc(-c2cc(-c3cnn(CC(F)(F)F)c3)n3nc(N)nc3c2)cn1 (single isomer, unassigned) [II-130, 5-[1-(2,2,2-Trifluoroethyl)-1H-pyrazol-4-yl]-7-(1-{1-[4-(trifluoromethyl)phenyl]propyl}-1H-pyrazol-4-yl)[1,2,4]triazolo[1,5-a]pyridin-2-amine]
25 nM | 165 nM | CCC(c1ccc(C(F)(F)F)cc1)n1cc(-c2cc(-c3cnn(CC(F)(F)F)c3)n3nc(N)nc3c2)cn1 (single isomer, unassigned) [II-131, 5-[1-(2,2,2-Trifluoroethyl)-1H-pyrazol-4-yl]-7-(1-{1-[4-(trifluoromethyl)phenyl]propyl}-1H-pyrazol-4-yl)[1,2,4]triazolo[1,5-a]pyridin-2-amine]
23 nM | 140 nM | CC(C)C(c1ccc(C(F)(F)F)nc1)n1cc(-c2cc(-c3cnn(CC(F)(F)F)c3)n3nc(N)nc3c2)cn1 (single isomer, unassigned) [II-141, 7-(1-{2-Methyl-1-[6-(trifluoromethyl)pyridin-3-yl]propyl}-1H-pyrazol-4-yl)-5-[1-(2,2,2-trifluoroethyl)-1H-pyrazol-4-yl][1,2,4]triazolo[1,5-a]pyridin-2-amine]
